US20200147039A1, “COMPOUNDS USEFUL IN INHIBITING HUMAN TREFOIL FACTOR 3” (NATIONAL UNIVERSITY OF SINGAPORE, priority 2017, published 2020)

How the values were obtained:
[1] = test system: high-TFF3 expression MC cells; assay: ApoTox-Glo Triplex Assay and western blot (FIG. 2); assay type: cell-based, human; conditions: 10 μM
Experimental: Effect of compound 43 (10 μM) on cell viability of high-TFF3 MC cell lines. (A) Cell viability (B) caspase 3/7 activities and (C) cytotoxicity was evaluated using ApoTox-Glo™ Triplex Assay Kit Promega (Singapore) according to manufacturer's instructions. Cell viability fluorescence is measured at 400Ex/505Em, cytotoxicity fluorescence is measured at 485Ex/520Em, while apoptosis (caspase 3/7 activities) is determined by luminescence measurement. (D) Western blot analysis was used to assess the level of various protein markers and protein activity in high-TFF3 expression MC cells after treatment with compound 43. Soluble whole cell extracts were run on a SDS-PAGE and immunoblotted as previously described in Pandey V et al., Breast Cancer Res. 2014; 16(5):429. β-ACTIN (ACTB) was used as input control for cell lysate. The sizes of detected protein bands in kDa are shown on the left side. Statistical significance was assessed by using an unpaired two-tailed Student's t test (P<0.05 was considered as significant) using GraphPad Prism5. Columns are mean of triplicate experiments; bars, ±SD. **P<0.001, *P<0.05.

[2] = test system: ECC1; assay: AlamarBlue cell viability assay, ECC1; assay type: cell-based; conditions: Homo sapiens, ECC-1, Endometrial
Experimental: The human immortalized mammary epithelial cell lines, MCF10A, and MCF12A; and immortalized hepatocellular epithelial cell line, LO2 were obtained from the American Type Culture Collection (ATCC, Rockville, Md.) and were cultured as per ATCC propagation instructions. MC cell lines, MCF7, T47D, BT474, BT20, MDA-MB-361, MDA-MB-436, MDA-MB-468, and MDA-MB-231; endometrial carcinoma cell lines, Ishikawa, ECC1, RL95-2 and AN3; hepatocellular carcinoma cell lines, Hep3B, H2P, and H2M; colon carcinoma cell lines, DLD-1, and Caco-2; and prostate carcinoma cell lines, PC3, LNCaP, and DU145 were obtained from the American Type Culture Collection (ATCC, Rockville, Md.). Pancreatic carcinoma cell lines, AsPC-1 and BxPC-3; Lung carcinoma cell lines, HCC-827, NCI-H1975, HCC-4006, PC-14, and NCI-H1299; and Thyroid carcinoma cell lines HTH83, CAL62, T238, and OGK-M were obtained from Prof. H. Phillip Koeffler's laboratory at The Cancer Science Institute of Singapore, National University of Singapore (NUS). Gastric carcinoma cell lines, AGS, MKN-28, MKN-45, and A2-528 were obtained from Prof. […]
In table 9 IC50 values of compound 43 compound library in several cancer cell lines are tabulated, using an AlamarBlue® cell viability assay as previously described in Pandey V et al., Breast Cancer Res. 2014; 16(5):429. Statistical analysis was assessed by using GraphPad Prism5. […]

Cc1cc(-c2ccc(C3C(C#N)=C(N)Oc4c3c(=O)oc3ccccc43)cc2)cnc1F (centres unmarked) [Compound 43, 2-Amino-4-(4-(6-fluoro-5-methylpyridin-3-yl)phenyl)-5-oxo-4H,5H-pyrano[3,2-c]chromene-3-carbonitrile]
intrinsic apoptosis [1]: stimulates intrinsic apoptosis
IC50 [2]: 4.64 µM
